Reference: the Kinase Knowledgebase extract (Sharma et al. 2016)

Target: PIK3CA (human) (UniProt P42336)
Assay: Assessment of PIK3CA Kinase Activity

Sequence of PIK3CA (human) (P42336 whole entry, looked up): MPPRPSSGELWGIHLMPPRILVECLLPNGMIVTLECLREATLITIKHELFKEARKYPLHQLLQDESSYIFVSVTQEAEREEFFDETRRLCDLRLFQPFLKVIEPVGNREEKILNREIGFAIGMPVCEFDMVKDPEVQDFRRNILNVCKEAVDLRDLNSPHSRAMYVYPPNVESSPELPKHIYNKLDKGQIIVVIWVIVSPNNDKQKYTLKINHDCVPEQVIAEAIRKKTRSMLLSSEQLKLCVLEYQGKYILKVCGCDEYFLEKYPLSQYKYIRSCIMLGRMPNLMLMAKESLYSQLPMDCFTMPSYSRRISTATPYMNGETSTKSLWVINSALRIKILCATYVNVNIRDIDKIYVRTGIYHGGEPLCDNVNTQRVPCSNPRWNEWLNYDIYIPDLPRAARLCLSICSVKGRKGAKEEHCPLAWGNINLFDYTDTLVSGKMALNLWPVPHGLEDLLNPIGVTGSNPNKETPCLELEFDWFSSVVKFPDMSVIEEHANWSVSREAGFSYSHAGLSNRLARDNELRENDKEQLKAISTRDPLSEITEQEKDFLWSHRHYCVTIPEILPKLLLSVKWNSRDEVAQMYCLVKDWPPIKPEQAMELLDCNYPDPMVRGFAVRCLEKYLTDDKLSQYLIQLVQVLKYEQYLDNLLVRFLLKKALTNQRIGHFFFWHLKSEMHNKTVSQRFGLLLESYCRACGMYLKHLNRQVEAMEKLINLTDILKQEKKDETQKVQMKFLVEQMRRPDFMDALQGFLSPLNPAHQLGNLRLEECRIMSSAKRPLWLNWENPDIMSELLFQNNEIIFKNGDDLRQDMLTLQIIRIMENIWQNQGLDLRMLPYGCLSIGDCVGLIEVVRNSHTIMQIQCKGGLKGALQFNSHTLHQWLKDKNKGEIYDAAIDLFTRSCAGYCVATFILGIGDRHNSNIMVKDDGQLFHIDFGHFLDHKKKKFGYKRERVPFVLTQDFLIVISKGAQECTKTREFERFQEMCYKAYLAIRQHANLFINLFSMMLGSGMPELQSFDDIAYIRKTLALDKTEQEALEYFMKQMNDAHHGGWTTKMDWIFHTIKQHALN

Compound | IC50
CCS(=O)(=O)Nc1cc(-c2ccc3nc(NC(C)=O)sc3n2)cnc1Cl | < 100 nM
CC(=O)Nc1nc2ccc(-c3ccc4nccn4c3)nc2s1 | < 100 nM
CC(=O)Nc1nc2ccc(-c3ccncc3)nc2s1 | 100 to 1000 nM
CC(=O)Nc1nc2cnc(-c3cnc(N)c(C(F)(F)F)c3)nc2s1 | < 100 nM
CS(=O)(=O)Nc1cc(-c2ccc3nc(NC(=O)C4CC4)sc3n2)cnc1Cl | < 100 nM
CC(=O)Nc1nc2ccc(-c3cnc(Cl)c(NS(=O)(=O)c4ccccc4)c3)nc2s1 | < 100 nM
CC(=O)Nc1nc2ccc(-c3cnc(Cl)c(NS(C)(=O)=O)c3)nc2s1 | < 100 nM
CC(=O)Nc1nc2ccc(-c3cnc4cc[nH]c4c3)nc2s1 | < 100 nM
CC(=O)Nc1nc2ccc(-c3ccccc3N)nc2s1 | 100 to 1000 nM
CC(=O)Nc1ccc(-c2ccc3nc(NC(C)=O)sc3n2)cn1 | 100 to 1000 nM
CC(=O)Nc1nc2cnc(-c3ccc(N)nc3)nc2s1 | 100 to 1000 nM
CC(=O)Nc1nc2cnc(-c3cnc(Cl)c(NS(C)(=O)=O)c3)nc2s1 | < 100 nM
CC(=O)Nc1nc2ccc(-c3ccc4[nH]ncc4c3)nc2s1 | < 100 nM
CNC(=O)c1ccc(-c2ccc3nc(NC(C)=O)sc3n2)cn1 | < 100 nM
CC(=O)Nc1nc2cnc(-c3cnc(Cl)c(N)c3)nc2s1 | 100 to 1000 nM
CC(=O)Nc1nc2ccc(-c3ccc(C#N)nc3)nc2s1 | 100 to 1000 nM
CC(=O)Nc1nc2ccc(-c3ccc4c(c3)CC(=O)N4)nc2s1 | < 100 nM
CC(=O)Nc1nc2ccc(-c3cnc4[nH]ccc4c3)nc2s1 | < 100 nM
CC(=O)Nc1nc2ccc(-c3cnc(Cl)c(NS(=O)(=O)C4CC4)c3)nc2s1 | 100 to 1000 nM
CONC(=O)c1cccc(-c2ccc3nc(NC(C)=O)sc3n2)c1 | < 100 nM

Continued, values first:

IC50 | Compound
100 to 1000 nM | CC(=O)Nc1nc2ccc(-c3ccc4[nH]ccc4c3)nc2s1
100 to 1000 nM | CC(=O)Nc1nc2ccc(-c3ccc(N)cc3)cc2s1
< 100 nM | CC(=O)Nc1nc2ccc(-c3cnc(Cl)c(NS(C)(=O)=O)c3)cc2s1
< 100 nM | CC(=O)Nc1nc2ccc(-c3cnc(N)cn3)cc2s1
< 100 nM | CNC(=O)c1ccc(-c2ccc3nc(NC(C)=O)sc3n2)cc1
100 to 1000 nM | CC(=O)Nc1nc2ccc(-c3ccc4[nH]ccc4c3)cc2s1
< 100 nM | CONC(=O)c1ccc(-c2ccc3nc(NC(C)=O)sc3n2)cc1
100 to 1000 nM | CNC(=O)c1cccc(-c2ccc3nc(NC(C)=O)sc3c2)c1
100 to 1000 nM | CC(=O)Nc1nc2ccc(-c3ccc4[nH]cc(C(N)=O)c4c3)cc2s1
< 100 nM | CC(=O)Nc1nc2ccc(-c3ccc4[nH]cc(C=O)c4c3)cc2s1
< 100 nM | CC(=O)Nc1nc2ccc(-c3ccc(-c4nnc[nH]4)cc3)nc2s1
100 to 1000 nM | CC(=O)Nc1ccc(-c2ccc3nc(NC(C)=O)sc3n2)cc1
